For orientation: Ki means the dissociation constant of the complex between target and ligand, obtained from inhibition or displacement.

Sequence of active HPK1 (SignalChem M23-11G) (Q92918 1-346 limits assumed): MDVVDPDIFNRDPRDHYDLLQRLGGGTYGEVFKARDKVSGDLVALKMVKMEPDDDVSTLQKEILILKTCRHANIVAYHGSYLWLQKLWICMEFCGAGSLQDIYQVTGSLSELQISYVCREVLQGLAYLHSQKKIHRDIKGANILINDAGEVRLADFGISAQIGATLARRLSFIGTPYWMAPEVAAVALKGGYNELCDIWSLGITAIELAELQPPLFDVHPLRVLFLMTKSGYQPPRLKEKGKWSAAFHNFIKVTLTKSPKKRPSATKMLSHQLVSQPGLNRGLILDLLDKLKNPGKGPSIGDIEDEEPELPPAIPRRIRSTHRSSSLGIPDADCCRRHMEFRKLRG

In the experiment the target is active HPK1 (SignalChem M23-11G) (Homo sapiens (Human), UniProt Q92918). The experiment is described as follows: HPK1 Kinase Binding Assay. To be noted: LanthaScreen tracer 222 / Eu-Anti GST antibody, one hour incubation at 25° C. On the procedure:
A stock solution of 1 mM test compound was prepared in DMSO. The compound plate was prepared by 3-fold and 11-point serial dilutions. 0.1 μL of the compound in DMSO was transferred from the compound plate to the white 384 well polystyrene plates. The assay buffer contained 50 mM HEPES, pH 7.5, 0.01% Tween-20, 5 mM MgCl2, 0.01% BSA, and 5 mM DTT. 5 μL of 4 nM active HPK1 (SignalChem M23-11G) prepared in the buffer was added to the plate. The enzyme concentration given was based on the given stock concentration reported by the vender. 5 μl of 18 nM tracer 222 (ThermoFisher PV6121) and 4 nM LanthaScreen Eu-Anti GST antibody (ThermoFisher PV5595) were added. After one hour incubation at 25° C., the plates were read on a PHERAstar FS plate reader (BMG Labtech). Ki values were determined.
(TR-FRET usually uses a lanthanide donor and a delayed reading to cut background.)
For `COc1cccc(F)c1-c1nccc(C(=O)Nc2ccc3c(nc(C)n3Cc3cnn(C)c3)c2N2CC[C@H](N)C2)n1` [Example 30, (S)—N-(4-(3-Aminopyrrolidin-1-yl)-2-methyl-1-((1-methyl-1H-pyrazol-4-yl)methyl)-1H-benzo[d]imidazol-5-yl)-2-(2-fluoro-6-methoxyphenyl)pyrimidine-4-carboxamide], the inhibition constant Ki is no more than 0.1 µM. To `COc1cccc(F)c1-c1nccc(C(=O)Nc2ccc3c(ccn3C)c2N2CCNC[C@H]2C)n1` [Example 37, (R)-2-(2-Fluoro-6-methoxyphenyl)-N-(1-methyl-4-(2-methylpiperazin-1-yl)-1H-indol-5-yl)pyrimidine-4-carboxamide] belongs no more than 0.1 µM; to `COc1cccc(F)c1-c1nccc(C(=O)Nc2ccc3c(ccn3-c3ccnn3C)c2N2C[C@@H](N)C[C@H]2CO)n1` [Example 46, N-(4-((2S,4S)-4-Amino-2-(hydroxymethyl)pyrrolidin-1-yl)-1-(1-methyl-1H-pyrazol-5-yl)-1H-indol-5-yl)-2-(2-fluoro-6-methoxyphenyl)pyrimidine-4-carboxamide], no more than 0.1 µM; to `COc1cccc(F)c1-c1nccc(C(=O)Nc2ccc3c(ccn3CC3CCCCO3)c2N2C[C@@H]3C[C@H]2CN3)n1` (stereo partly drawn) [Example 41, N-(4-((1S,4S)-2,5-Diazabicyclo[2.2.1]heptan-2-yl)-1-((tetrahydro-2H-pyran-2-yl)methyl)-1H-indol-5-yl)-2-(2-fluoro-6-methoxyphenyl)pyrimidine-4-carboxamide], no more than 0.1 µM.

The record behind these values is patent publication US11299473B2, “Benzimidazole and indole compounds and uses thereof” (Incyte Corporation, priority 2018, dated 2022).
